# Legend:
# T98G glioblastoma cells [1] = assay: Colony formation assay in T98G cells; assay type: cell-based, human
# Text: (§1) Cells plated in very low density (4-6×10^3) in 6-well plates were allowed to grow for about 7 days until they form small colonies. These cells were then transfected with Scrambled or HDAC4 siRNA using Lipofectamine RNAiMAX reagent (Invitrogen) according to the manufacturer's instructions. After 48 hrs, treatments were given with indicated concentration of chemical drugs for another 48 hrs. Cell colonies were washed with PBS, fixed with 3.7% formaldehyde and stained with 0.2% crystal violet solution (made in 10% ethanol) for 15 minutes at room temperature each. Excess stain was removed by repeated washings with PBS. Plates were dried and pictures were taken with Epson perfection V700 scanner and analysed with ImageJ.
# (§2) The efficacy of the selected potent drugs was then tested by colony formation assay in […] T98G, and highly-tumorigenic U87MG-luciferase (luciferase expressing U87MG cells) glioblastoma cell lines. For this experiment, the cells were grown in 6-well plates in low density until the formation of small colonies which were then transfected with Scrambled or HDAC4 specific siRNA for 48 hrs followed by treatment with STS, PKC412, K252a, UCN-01 and CEP-701 at the indicated concentrations for another 48 hrs.
# T98G glioblastoma cells [2] = assay: Apoptosis assay by sub-G0/G1 fraction estimation (apoptotic nuclear fragmentation); assay type: cell-based, human; conditions: T98G cells transfected with PME-1 specific dsRNA (so in the source)
# Procedure: Apoptosis Assay by Sub-G0/G1 Fraction Estimation: […] After 24 hrs of treatment, both floating and adherent cells were harvested by centrifugation. […] The flow cytometric analysis of PI stained nuclei was performed and the recorded data was analyzed using a FACScan flow cytometer and software (Becton Dickinson) respectively. […] The treatments were given 48 hrs after transfection. Following 24 hrs of drug treatment the cells were lysed in hypotonic buffer, and their nuclei were stained with propidium iodide. The stained cell lysates were analysed to estimate the sub-G0/G1 fraction of fragmented nuclei by flow cytometry (FACS) (FIG. 1B).
# [3] = test system: U87MG-luciferase glioblastoma cells; assay: Colony formation assay in U87MG-luciferase cells; assay type: cell-based; conditions: HDAC4 siRNA 48 hrs, then drug 48 hrs (combination)
# Text: as §1, §2
# [4] = HDAC4.2 siRNA transfected cells treated with drug
SMILES,Potentiation % (Scale) (T98G glioblastoma cells [2]; drug 5 μM),Potentiation % (amount of apoptotic nuclear fragmentation) (T98G glioblastoma cells [2]; drug 5 μM),other results
"CN[C@@H]1C[C@H]2O[C@@](C)([C@@H]1OC)n1c3ccccc3c3c4c(c5c6ccccc6n2c5c31)C(=O)NC4 [Staurosporine, [9S-(9α,10β,11β, 13α)]-2,3,10,11, 12,13-Hexa-hydro-10-methoxy-9-methyl-11-(methylamino)-9,13-epoxy-1H,9H-diindolo [1,2,3-gh:3′,2′,1′-lm] pyrrolo [3,4-j][1,7] benzo diazonin-1-one]",–,–,colony growth (T98G glioblastoma cells [1]; [4]): reduction in the colony growth; Potentiation % (Scale) (T98G glioblastoma cells [2]; drug 50 nM): + ((+) 20-40%); Potentiation % (amount of apoptotic nuclear fragmentation) (T98G glioblastoma cells [2]; drug 50 nM): 30-40%
"Cn1c2ccccc2c2c3c(c4c5ccccc5n(CCC#N)c4c21)CNC3=O [GÖ-6976, 12-(2-Cyanoethyl)-6,7,12,13-tetrahydro-13-methyl-5-oxo-5H-indolo[2,3-a]pyrrolo[3,4-c]carbazole]",− ((−) 0-20%),10-20%,–
"O=C1NC(=O)c2c1c1c3ccccc3n3c1c1c2c2ccccc2n1C1CCC3O1 [SB-218078, 9,10,11,12-Tetrahydro-9,12-epoxy-1H-diindolo [1,2.3-fg:3′,2′,1′-kl] pyrrolo [3,4-i][1,6] benzodi-azocine-1,3(2H)-dione]",+ ((+) 20-40%),20-30%,–
"O=C1NCc2c1c1c3ccccc3[nH]c1c1[nH]c3ccccc3c21 [K252c, 6,7,12,13-Tetrahydro-5H-indolo[2,3-a]pyrrolo[3,4-c] carbazol-5-one]",− ((−) 0-20%),10-20%,–
"COC(=O)[C@@]1(O)C[C@H]2O[C@]1(C)n1c3ccccc3c3c4c(c5c6ccccc6n2c5c31)C(=O)NC4 [K252a, (9S,10R,12R)-2,3,9,10,11,12-Hexahydro-10-hydroxy-9-methyl-1-oxo-9,12-epoxy-1H-diindolo [1,2,3-fg:3′,2′,1′-kl] pyrrolo[3,4-i][1,6] benzodi-azocine-10-carboxylic acid methyl ester]",++++ ((++++) 80-100%),80-90%,"colony growth [3]: very potent in reducing the colony growth; colony growth (T98G glioblastoma cells [1]; HDAC4 siRNA 48 hrs, then drug 48 hrs (combination)): very potent in reducing the colony growth; colony growth (T98G glioblastoma cells [1]; [4]): reduction in the colony growth; Potentiation % (Scale) (T98G glioblastoma cells [2]; drug 3.5 μM): ++ ((++) 40-60%); Potentiation % (amount of apoptotic nuclear fragmentation) (T98G glioblastoma cells [2]; drug 3.5 μM): 50-60%"
"Cn1cc(C2=C(c3cn(C4CCN(Cc5ccccn5)CC4)c4ccccc34)C(=O)NC2=O)c2ccccc21 [Enzastaurin, 3-(1-Methyl-1H-indol-3-yl)-4-(1-(1-(2-pyridinylme-thyl)-4-piperidinyl)-1H-indol-3-yl)-1H-pyrrole-2,5-dione]",− ((−) 0-20%),10-20%,–
"CN[C@@H]1C[C@H]2O[C@@](C)([C@@H]1OC)n1c3ccccc3c3c4c(c5c6ccccc6n2c5c31)C(=O)N[C@H]4O [UCN-01, (9S)-2,3,10,11,12,13-Hexahydro-3α-hydroxy-10α-methoxy-9-methyl-11α-methyl amino-9β,13β-epoxy-1H,9H-diindolo [1,2,3-gh:3′,2′,1′-lm] pyrrolo [3,4-j][1,7] benzo diazonin-1-one]",–,–,Potentiation % (Scale) (T98G glioblastoma cells [2]; drug 1.5 μM): + ((+) 20-40%); Potentiation % (amount of apoptotic nuclear fragmentation) (T98G glioblastoma cells [2]; drug 1.5 μM): 20-30%; Potentiation % (Scale) (T98G glioblastoma cells [2]; drug 2.5 μM): +++ ((+++) 60-80%); Potentiation % (amount of apoptotic nuclear fragmentation) (T98G glioblastoma cells [2]; drug 2.5 μM): 70-80%
"O=C1NC(=O)c2c1c1c3ccccc3[nH]c1c1[nH]c3ccccc3c21 [Arcyriaflavin A, 12,13-Dihydro-5H-indolo [2,3-a] pyrrolo[3,4-c] carbazole-5,7(6H)-dione]",− ((−) 0-20%),5-10%,–
"COC1C(CO)OC(n2c3c(Cl)cccc3c3c4c(c5c6cccc(Cl)c6[nH]c5c32)C(=O)NC4=O)C(O)C1O (stereo not drawn) [Rebeccamycin, 5h-indolo(2,3-a)pyrrolo(3,4-c)carbazole-5,7(6h)-dione,1,11-dichloro-12,13-dihy;dro-12-(4-o-methyl-beta-d-glucopyra-nosyl)]",− ((−) 0-20%),5-10%,–
"C[C@]12O[C@H](C[C@]1(O)CO)n1c3ccccc3c3c4c(c5c6ccccc6n2c5c31)CNC4=O [CEP-701, (9S,10S,12R)-2,3,9,10,11,12-Hexahydro-10-hydroxy-10-(hydroxyme-thyl)-9-methyl-9,12-epoxy-1H-diindolo [1,2,3-fg:3′,2′,1′-kl] pyrrolo[3,4-i][1, 6] benzo di-azocin-1-one]",+++ ((+++) 60-80%),70-80%,colony growth [3]: less effective; Potentiation % (Scale) (T98G glioblastoma cells [2]; drug 3.5 μM): ++ ((++) 40-60%); Potentiation % (amount of apoptotic nuclear fragmentation) (T98G glioblastoma cells [2]; drug 3.5 μM): 40-50%
"CO[C@@H]1[C@H](N(C)C(=O)c2ccccc2)C[C@H]2O[C@@H]1n1c3ccccc3c3c4c(c5c6ccccc6n2c5c31)C(=O)NC4 [PKC412, [9S-(9α,10β,11β, 13α)]-N-(2,3,10, 11,12,13-Hexahydro-10-methoxy-9-methyl-1-oxo-9,13-epoxy-1 H,9H-diindolo [1,2,3-gh:3′,2′,1′-lm]pyrrolo [3,4-j][1,7]benzodiazonin-11-yl)-N-methyl ben-zamide]",++ ((++) 40-60%),50-60%,colony growth (T98G glioblastoma cells [1]; [4]): reduction in the colony growth
